PMC4071583, “Potent Cytotoxic Peptides from the Australian Marine Sponge Pipestela candelabra” (Marine Drugs, 2014)
Where two headings read alike, the source gives them in different places.

Legend:
[1] = tested on: murine leukemia L1210 cell line; design: method as in doi:10.1016/0040-4039(90)87015-R; settings: cited from earlier work
[2] = tested on: human neonatal foreskin fibroblast (noncancer cells, NFF); test: Cytotoxicity assay (Alamar blue), human neonatal foreskin fibroblast non-cancer cells NFF; assay type: cell-based; settings: for IC50: read-out: IC50 NFF
Experimental: (§1) Human prostate adenocarcinoma cells (PC3) and human neonatal foreskin fibroblast (noncancer cells, NFF) were grown in media RPMI-1640 (Life Technologies, Grand Island, NY, USA) supplemented with 10% foetal bovine serum (FBS). Cells were grown under 5% CO2 in a humidified environment at 37°C. Fifty microlitres of media containing 500 cells were added to a 384 well microtitre plate (Perkin Elmer, Waltham, MA, USA, part number: 6007660) containing 0.2 μL of a compound. Final compound concentration range tested was 10 μM to 1 pM (final DMSO concentration of 0.4%). Each concentration in media was tested in triplicate and in two independent experiments. Cells and compounds were then incubated in 72 h at 37 °C, 5% CO2 and 80% humidity. Cell proliferation was measured with the addition of 10 μL of a 60% Alamar blue (Invitrogen, Carlsbad, CA, USA) solution in media to each well of the microtitre plate to give a final concentration of 10% Alamar blue. The plates were incubated at 37 °C, 5% CO2 and 80% humidity within 24 h. The fluorescence of each well was read at excitation 535 nm and emission 590 nm on the Perkin Elmer EnVision Multilabel Reader 2104. Eight-point concentration response curves were then analysed using non-linear regression and IC50 values determined by using GraphPad Prism 5 (GraphPad Software Inc., La Jolla, CA, USA). Paclitaxel and doxorubicin were used during each screening as positive control compounds.

[3] = tested on: Human prostate adenocarcinoma cells (PC3); test: Cytotoxicity assay (Alamar blue), human prostate cancer cells PC3; assay type: cell-based; settings: for IC50: Homo sapiens, read-out: IC50 PC3
Experimental: as §1

[4] = Auto-oxidation on storage, LC/MS analysis; assay type: physicochemical; settings: dried compound stored at room temperature for a few months
Text: We noticed that the dried milnamides A (5) and E (1) changed from white powders to yellow powders when the compounds were stored at room temperature for a few months. […] As in the previous study, we are unable to determine if milnamides A (5) and E (1) are naturally occurring or produced by auto-oxidation.

[5] = design: method as in PMID 15547903; settings: cited from earlier work
[6] = tested on: human xenograft cancer models; design: method as in PMID 19825803; settings: many human xenograft cancer models; cited from earlier work
[7] = tested on: advanced solid tumors; design: method as in PMID 19096380; settings: cited from earlier work
[8] = NFF cells, 72 h incubation, Alamar blue, mean of two independent experiments in triplicate
[9] = PC-3, PC3 cells, 72 h incubation, Alamar blue, mean of two independent experiments in triplicate

SMILES | IC50 ([2]; NFF, 72 h) | IC50 ([3]; PC-3, 72 h) | also measured
C/C1=C\[C@@H](C)C[C@@H](C)OC(=O)[C@@H](C)NC(=O)[C@H](Cc2ccc(O)c(Br)c2)N(C)C(=O)CNC(=O)[C@H](C)C1 [Compound 11, geodiamolide E] | 425 nM | 118 nM | IC50 [1]: 24.2 nM
C/C1=C\[C@@H](C)C[C@@H](C)OC(=O)[C@@H](C)NC(=O)[C@H](Cc2ccc(O)c(I)c2)N(C)C(=O)CNC(=O)[C@H](C)C1 [Compound 10, geodiamolide D] | 99.1 nM | 33.1 nM | IC50 [1]: 62.2 nM; fold more potent than geodiamolide E (11) ([3]; PC3 cells, comparator 11): 4 fold; fold more active than geodiamolide F (12) ([3]; PC3 cells, comparator 12): 5 fold
CC(=CC(C(C)C)N(C)C(=O)C(NC(=O)C1N(C)C(=O)c2[nH]c3ccccc3c2C1(C)C)C(C)(C)C)C(=O)O (stereo not shown) [Compound 2, milnamide F] | 5650 nM | 2180 nM | –
C/C(=C\[C@H](C(C)C)N(C)C(=O)[C@@H](NC(=O)[C@H]1N(C)Cc2c(c3ccccc3n2C)C1(C)C)C(C)(C)C)C(=O)O [Compound 5, milnamide A] | 70.6 nM | 11 nM | fold more potent than milnamide C (6) ([3]; PC3 cells, comparator 6): 3 fold; fold more potent than milnamide C (7) ([3]; PC3 cells, comparator 7): 35 fold; milnamide D (7) or G (3) formed by auto-oxidation (LC/MS) [4]: 5%–10%; auto-oxidation while standing in chloroform [5]: auto-oxidized slowly to milamide D (7)
COc1cccc2c1C(=O)c1c(O)c3c(c(O)c1C2=O)C[C@@](O)(C(=O)CO)C[C@@H]3O[C@H]1C[C@H](N)[C@H](O)[C@H](C)O1 [Doxorubicin, doxorubicin, reference compound] | – | – | IC50 [2, 8]: 530 nM; IC50 [3, 9]: 359 nM
C/C(=C\[C@H](C(C)C)N(C)C(=O)[C@@H](NC(=O)[C@H]1[N+](C)=Cc2c(c3ccccc3n2C)C1(C)C)C(C)(C)C)C(=O)O [Compound 7, milnamide D] | 1190 nM | 381 nM | –
CC(=CC(C(C)C)N(C)C(=O)C(NC(=O)C1N(C)Cc2[nH]c3ccccc3c2C1(C)C)C(C)(C)C)C(=O)O (stereo not shown) [Compound 1, milnamide E] | 123 nM | 34.2 nM | milnamide D (7) or G (3) formed by auto-oxidation (LC/MS) [4]: 5%–10%
CNC(C(=O)NC(C(=O)N(C)C(C=C(C)C(=O)O)C(C)C)C(C)(C)C)C(C)(C)c1cn(C(O)C(=O)NC(C(=O)N(C)C(C=C(C)C(=O)O)C(C)C)C(C)(C)C)c2ccccc12 (stereo not shown) [Compound 4, hemiasterlin D] | 8.16 nM | 2.2 nM | –
CC(=CC(C(C)C)N(C)C(=O)C(NC(=O)C1[N+](C)=Cc2[nH]c3ccccc3c2C1(C)C)C(C)(C)C)C(=O)O (stereo not shown) [Compound 3, milnamide G] | – | 2870 nM | inhibition at 10 µM ([2]; NFF, read-out: % Inhibition NFF): 39%
C/C(=C\[C@H](C(C)C)N(C)C(=O)[C@@H](NC(=O)[C@H]1CCCCN1C(C)C)C(C)(C)C)C(=O)O [Compound E7974] | – | – | in vivo antitumor efficacy [6]: strong in vivo antitumor efficacy
CC(=O)O[C@H]1C(=O)[C@@]2(C)[C@H]([C@H](OC(=O)c3ccccc3)[C@]3(O)C[C@H](OC(=O)[C@H](O)[C@@H](NC(=O)c4ccccc4)c4ccccc4)C(C)=C1C3(C)C)[C@]1(OC(C)=O)CO[C@@H]1C[C@@H]2O [Taxol, Paclitaxel, reference compound] | – | – | IC50 [2, 8]: 3.94 nM; IC50 [3, 9]: 2.26 nM
C/C(=C\[C@H](C(C)C)N(C)C(=O)[C@@H](NC(=O)[C@H]1N(C)C(=O)c2c(c3ccccc3n2C)C1(C)C)C(C)(C)C)C(=O)O [Compound 6, milnamide C] | 188 nM | 31.7 nM | –
CN[C@H](C(=O)N[C@H](C(=O)N(C)[C@H](/C=C(\C)C(=O)O)C(C)C)C(C)(C)C)C(C)(C)c1cn(C)c2ccccc12 [Compound 8, hemiasterlin] | 0.404 nM | 0.0484 nM | fold more cytotoxic than hemiasterlin A (9) ([3]; comparator 9): six-fold
C/C1=C\[C@@H](C)C[C@@H](C)OC(=O)[C@@H](C)NC(=O)[C@H](Cc2ccc(O)c(Cl)c2)N(C)C(=O)CNC(=O)[C@H](C)C1 [Compound 12, geodiamolide F] | 708 nM | 155 nM | IC50 [1]: 11.2 nM
CN[C@H](C(=O)N[C@H](C(=O)N(C)[C@H](/C=C(\C)C(=O)O)C(C)C)C(C)(C)C)C(C)(C)c1ccccc1 [HTI-286] | – | – | common toxicities observed [7]: neutropaenia, nausea, alopecia, and pain; objective responses ([7]; phase II trial halted): no objective responses
